Measured values from US20140066385A1, “METHOD FOR TREATING CANCER BY COMBINED USE OF DRUGS” (Astellas Pharma Inc., priority 2011, published 2014).

Assays:
[1] = test system: human non-small cell lung cancer (Calu-6); experiment: Example 4: administration timing of FK330 with paclitaxel in Calu-6 tumor-bearing mice; format: in vivo, nude mice; conditions: Day 55; for tumor volume at the end of the study: mean±SEM
Description: Preparation of the test substances and conditioning of the cells were carried out in the same manner as in Example 2.
(§1) Five-week old male nude mice (CAnN Cg-Foxn1nu/CrlCrlj(nu/nu)) were purchased from Charles River Laboratories Japan, Inc. (Japan, Kanagawa). The animals were raised under specific pathogen-free (SPF) conditions throughout the test period by feeding standard feedstuff and drinking water. The cultured cells were subcutaneously inoculated into the dorsal region of the nude mice at a concentration of 3×10^6 cells/0.1 mL/mouse. Nude mice which had the tumor volumes (major axis×[minor axis]^2×0.52) ranging from 142.1 mm^3 to 359.1 mm^3 were assigned by using SAS to minimize the fluctuation in the tumor volume between the groups and within the group.
The first day of administration was designated as Day 0, and observation was made until Day 55. The respective groups (n=5 or 6) were treated as follows. FK330 was orally gavaged in an amount of 5 mL/kg, and paclitaxel was administered intravenously through the tail vein in an amount of 10 mL/kg. Paclitaxel was continuously administered from Day 0 to Day 5, was subsequently withdrawn for 22 days, and then was continuously administered for 5 days from Day 28 to Day 32.
Paclitaxel single administration group: Paclitaxel 10 mg/kg/day (from Day 0 to Day 5, and from Day 28 to Day 32)
Concomitant administration, FK330 100 mg/kg bid (200 mg/kg/day)+paclitaxel 10 mg/kg/day (from Day 0 to Day 5, and from Day 28 to Day 32)
Sequential administration, FK330 100 mg/kg bid (200 mg/kg/day)+paclitaxel 10 mg/kg/day (from Day 0 to Day 5, and from Day 28 to Day 32)
Continuous administration, FK330 100 mg/kg bid (200 mg/kg/day)+paclitaxel 10 mg/kg/day (from Day 0 to Day 5, and from Day 28 to Day 32)
FK330 was orally gavaged (5 mL/kg) twice a day at an interval of 6 to 8 hours. In the Concomitant administration, FK330 was administered on the days of administration of paclitaxel (from Day 0 to Day 5, and from Day 28 to Day 32); and in the […] administration, FK330 was administered on the withdrawal days after the days of administration of paclitaxel (from Day 6 to Day 27, and from Day 33 to Day 55), while the continuous administration was carried out for all days from the day of experiment initiation to the day of experiment completion. Paclitaxel was administered by intravenous bolus injection (10 mL/kg) through the tail vein 2 to 4 hours after the administration of FK330.
Every 3 to 4 days, the body weight and the tumor diameters, determined by using a digital caliper, were measured. The tumor volume was calculated from the calculation formula for ellipsoid volume of (major axis×[minor axis]^2×0.52).

[2] = test system: human non-small cell lung cancer (Calu-6); experiment: Example 2: FK330 with multicycle paclitaxel in Calu-6 tumor-bearing mice; format: in vivo, nude mice; conditions: for tumor volume reduction ratio compared with the paclitaxel-only group: FK330 100 mg/kg bid p.o. continuously + paclitaxel 10 mg/kg/day i.v. multicycle, P<0.01
Description: The dose of FK330 is expressed in weight including the hydrate. A paclitaxel injectable preparation (paclitaxel injection liquid, “Sawai”) was purchased from Sawai Pharmaceutical Co., Ltd., and was used as paclitaxel.
FK330 was suspended (20 mg/mL) in a 0.5% aqueous methyl cellulose solution (0.5% MC). Paclitaxel was prepared with physiological saline for injection (Otsuka Pharmaceutical Group) to a concentration of 1 mg/mL at the time of use.
Human lung cancer-derived Calu 6 (HTB-56) was obtained from American Type Culture Collection (VA, USA). The cells were cultured under the conditions of 37° C. and 5% CO2 by using RPMI1640 medium containing 10% heat-inactivated fetal bovine serum (FBS). The cells were harvested with trypsin and were suspended in PBS at 6×10^7 cells/mL, and the suspension was mixed with an equal amount of Matrigel (trade name) Basement Membrane Matrix (manufactured by Becton Dickinson Co., Bedford, Mass., USA).
as §1, with “Cg-Foxn1nu/CrICrlj(nu/nu))” for “Cg-Foxn1nu/CrlCrlj(nu/nu))”, “136.5” for “142.1”, “299.0” for “359.1”
The first day of administration was designated as Day 1, and observation was made until Day 83. The respective groups (n=6) were treated as follows. FK330 was orally gavaged in an amount of 5 mL/kg, and paclitaxel was administered intravenously through the tail vein in an amount of 10 mL/kg. Paclitaxel was continuously administered from Day 1 to Day 7, and then was withdrawn for 23 days (1 cycle). In the administration of PTX in the second cycle and the third cycle, PTX was continuously administered for 6 days from Day 31 and from Day 60, respectively. […]
Every 2 to 4 days, the body weight and the tumor diameters, determined by using a digital caliper, were measured. The tumor volume was calculated from the calculation formula for ellipsoid volume of (major axis×[minor axis]^2×0.52).
The results are expressed as the mean value (Mean)±standard error (SEM). […] Using the actual measured values of the tumor volume at the end of the study, an unpaired statistical test (Student's t-test) of the difference between two groups was carried out between a single administration group and a combined use group. […]

Structure (SMILES) | tumor volume reduction ratio compared with the paclitaxel-only group ([1]; concomitant administration of FK330 100 mg/kg bid + paclitaxel) | tumor volume at the end of the study ([1]; concomitant administration of paclitaxel and FK330 100 mg/kg bid (FK330 on paclitaxel days only)) | tumor volume at the end of the study ([1]; continuous administration of FK330 100 mg/kg bid (all days) + paclitaxel) | tumor volume reduction ratio compared with the paclitaxel-only group ([1]; continuous administration of FK330 100 mg/kg bid + paclitaxel) | tumor volume at the end of the study ([1]; sequential administration of FK330 100 mg/kg bid (on paclitaxel withdrawal days) + paclitaxel) | tumor volume reduction ratio compared with the paclitaxel-only group ([1]; sequential administration of FK330 100 mg/kg bid + paclitaxel) | tumor volume reduction ratio compared with the paclitaxel-only group ([2]; Day 29) | tumor volume reduction ratio compared with the paclitaxel-only group ([2]; Day 60) | tumor volume reduction ratio compared with the paclitaxel-only group ([2]; Day 83) | tumor volume at the end of the study ([1]; paclitaxel-only group, 10 mg/kg/day i.v. Day 0-5 and Day 28-32) | anti-tumor effect of paclitaxel as a result of multicycle administration ([2]; paclitaxel 10 mg/kg/day i.v. alone, three cycles, until Day 83)
O=C(/C=C/c1ccc(Cl)cc1)N[C@@H](Cc1ccccn1)C(=O)NCC(=O)N1CCC(Oc2cc(C(F)(F)F)ncn2)CC1 [FK330, N^2-[(2E)-3-(4-chlorophenyl)-2-propenoyl]-N-[2-oxo-2-(4-{[6-(trifluoromethyl)pyrimidin-4-yl]oxy}piperidin-1-yl)ethyl]-3-pyridin-2-yl-L-alaninamide] | 54.5% | 559.8±161.8 mm^3 | 168.5±66.0 mm^3 | 86.3% | 1150.9±264.9 mm^3 | 6.4% | 57.6% | 86.1% | 87.6% | – | –
CC(=O)O[C@H]1C(=O)[C@@]2(C)[C@H]([C@H](OC(=O)c3ccccc3)[C@]3(O)C[C@H](OC(=O)[C@H](O)[C@@H](NC(=O)c4ccccc4)c4ccccc4)C(C)=C1C3(C)C)[C@]1(OC(C)=O)CO[C@@H]1C[C@@H]2O [paclitaxel, reference compound] | – | – | – | – | – | – | – | – | – | 1229.2±289.6 mm^3 | tended to attenuate
